Experimental data: article PMC8597046, “Use of Mixture Dosing and Nonlinear Mixed Effect Modeling of Eight Environmental Contaminants in Rabbits to Improve Extrapolation Value of Toxicokinetic Data” (Environmental Health Perspectives, 2021)

Experiments:
[1] = Nonlinear mixed effect (NLME) compartmental modeling of merged IV and oral serum concentrations; conditions: for AUCIV: dosing time to infinity after intravenous dosing; for AUCVO: dosing time to infinity after oral dosing, MEHP after oral DEHP
Text: A nonlinear mixed effect (NLME) modeling approach was used to analyze simultaneously all data obtained from the different rabbits after both IV and oral administrations and to provide robust estimates of the typical TK parameters.
The primary parameters of the model, namely the volume of distribution of the central compartment (V1), the first-order rate constants ( K10 , K12 , K21 , and Kabs plus K13 , K31 for PFOA) and the bioavailability (F) and their associated precisions [standard error (SE)] were estimated by minimizing an objective function value (OFV) expressed as minus twice the log of the likelihood estimation ( −2LL ). […] Marginal likelihood was approximated by using the Laplacian engine by default and, when this engine was unable to determine the SE of the estimate, the Quasi-Random Parametric Expectation Maximization (QRPEM) was selected.
Between subject variability (BSV) of the parameters was measured using the exponential model θparameter_i=θtv_parameter×exp (ηi), where θparameter_i is the parameter estimated for the ith individual, θtv_parameter is the typical population value of the parameter, and ηi is the deviation associated with the ith individual from the corresponding value of the parameter at the population level.
The distribution of ηi was assumed to be normal with a mean of 0 and a variance ω² . BSV was reported as a coefficient of variation (CV) in the original scale CV(%)=100× exp (ω^2)−1 .
The residual variance was modeled using a combined additive and proportional error model Cobsij=Cpredij(1 + ε1ij) + ε2ij, where Cobsij and Cpredij are respectively the jth observed and predicted concentrations for the ith individual, and ε1ij and ε2ij are the multiplicative and additive residual errors.
Secondary parameters were calculated from the population primary parameters.
The clearance values (CL) were estimated using Equation 5: (5) CL=K10×V1, where V1 is the volume of the central compartment and K10 is the elimination rate constant from the central compartment.
The volume of the peripheral compartment (V2) was estimated with Equation 6: (6) V2=V1×(K12/K21), where K12 and K21 are the distribution rate constants between the central and the peripheral compartments.
The clearance of distribution (Q) was estimated using Equation 7: (7) Q=K12×V1, with […] and K12 as defined above.
The volume of distribution associated with the terminal phase was estimated with Equation 10: (10) VZ=CL/λZ, with λZ as defined above.
The AUC was computed as a secondary parameter using Equation 11: (11) AUC=Dose/CL.
The terminal half-life was estimated with Equation 1, as previously described.

[2] = TK assay, oral mixture dosing: serum concentrations and noncompartmental analysis (sparse data); conditions: for Serum concentration: oral; for AUC0−inf / Cmax: serum; for Cmax: doses in Table 3 r3, MEHP measured after oral DEHP, BPSG after BPS
Experimental: The experiment was carried out on thirty 10-wk old female New Zealand white rabbits (INRA 1777 line) weighing 2.37±0.14kg . […] Blood samples were taken at the designated time points post IV and oral administration: 15 min, 30 min, 1 h, 2 h, 4 h, 8 h, 12 h, 24 h, 3 d, 7 d, and 28 d from groups of 3 or 6 rabbits at each sampling time. Each rabbit was sampled 3 times and 3 rabbits were sampled at each sampling time, except at 30 min post administration, when 6 samples were collected to provide a sufficient blood volume for assaying the compounds. The doses and assay time points were selected to allow the calculation of TK parameters (Table 1) based on preliminary TK data. Residual concentrations of the compounds, and their possible evolution over time, were determined by sampling six entirely untreated rabbits during the TK study on the day of drug administrations, then 14 d and 28 d later.
The volume administered was adjusted to the animal’s body weight (BW) recorded the day before.
Intravenous administrations were performed via an indwelling catheter (22G Terumo, 0.9×25mm ) just after its insertion into an ear vein. […] For oral administrations, the mixture of all compounds ( 4mL/kg ) was deposited directly in the mouth of rabbits using a catheter (22G BD Insyte 22G, 0.9×25mm ). Prior to the study, the rabbits had been trained to gradually swallow water and then corn oil.
Blood samples were collected from the auricular artery using a 20 G needle ( 0.9×25mm ) and a dry tube. The first two blood samples were 8–10mL in volume, whereas a large volume (about 20mL ) was obtained antemortem immediately after electrical stunning (95LX rabbit stunner; Burdis), followed by exsanguination.
Serum concentration-time profiles of the different compounds were first analyzed using a noncompartmental approach (NCA) involving a sparse data option. Sparse data methodology consists of calculating TK parameters based on the mean profile of all the subjects in the dataset and is appropriate when a rich data series cannot be obtained, as in the present experiment ([FDA 1999]). The area under the concentration time curve ( AUC0−tlast ) and the area under the first moment curve ( AUMC0−tlast ) from dosing time ( t=0 ) to the time of the last measurable concentration were calculated using the linear trapezoidal rule after IV and oral dosing. The area under the serum concentration time curve from dosing time to infinity ( AUC0−inf ) was obtained by adding to AUC0−tlast the area extrapolated from the time of the last measurable concentration to infinity by dividing the last quantifiable serum concentration by the slope of the terminal phase ( λZ ), as estimated by linear regression using the best fit option of Phoenix®.
The clearance (CL) and apparent clearance (CL_F) were respectively estimated after IV and oral administrations by dividing the administered dose by the AUC0−inf calculated for each analyte.
The terminal half-life (HL) was estimated with Equation 1: (1) HL=0.69315/λZ where λz is the slope of the terminal phase.
The oral bioavailability (F) was estimated using Equation 2: (2) F=AUCvo0−tlast×Doseiv/AUCiv0−tlast×Dosevo, where AUCiv0−tlast and AUCvo0-tlast are the values of AUC0−tlast obtained after IV and oral dosing, respectively, and Doseiv and Dosevo are the IV and oral doses.

[3] = population primary parameter, typical value, mean
[4] = population secondary parameter, mean
[5] = oral mixture dosing, NCA, n=12, MEHP after oral DEHP
[6] = rabbit 13, 4.30 h, MEHP after oral DEHP
[7] = rabbit 14, 0.37 h, MEHP after oral DEHP
[8] = rabbit 14, 4.17 h, MEHP after oral DEHP
[9] = rabbit 15, 4.05 h, MEHP after oral DEHP
[10] = rabbit 15, 23.98 h, MEHP after oral DEHP
[11] = rabbit 16, 0.55 h, MEHP after oral DEHP
[12] = rabbit 16, 8.22 h, MEHP after oral DEHP
[13] = rabbit 16, 72.00 h, MEHP after oral DEHP
[14] = rabbit 17, 0.53 h, MEHP after oral DEHP
[15] = rabbit 17, 8.48 h, MEHP after oral DEHP
[16] = rabbit 17, 72.00 h, MEHP after oral DEHP
[17] = rabbit 18, 0.55 h, MEHP after oral DEHP
[18] = rabbit 18, 8.00 h, MEHP after oral DEHP
[19] = rabbit 18, 71.96 h, MEHP after oral DEHP
[20] = rabbit 19, 1.02 h, MEHP after oral DEHP
[21] = rabbit 19, 12.00 h, MEHP after oral DEHP
[22] = rabbit 20, 1.07 h, MEHP after oral DEHP
[23] = rabbit 20, 12.00 h, MEHP after oral DEHP
[24] = rabbit 21, 1.08 h, MEHP after oral DEHP
[25] = rabbit 21, 12.00 h, MEHP after oral DEHP
[26] = rabbit 22, 2.00 h, MEHP after oral DEHP
[27] = rabbit 23, 2.00 h, MEHP after oral DEHP
[28] = rabbit 24, 2.22 h, MEHP after oral DEHP

Row | SMILES | AUCIV ([1]; population secondary parameter) | AUCVO ([1]; population secondary parameter) | tvK10 (elimination rate constant from the central compartment) [1, 3] | tvVc (volume of the central compartment) [1, 3] | MRT [1, 4] | MRT [2, 5] | Tmax [2, 5] | Serum concentration [2, 6] | Serum concentration [2, 7] | Serum concentration [2, 8] | Serum concentration [2, 9] | Serum concentration [2, 10] | Serum concentration [2, 11] | Serum concentration [2, 12] | Serum concentration [2, 13] | Serum concentration [2, 14] | Serum concentration [2, 15] | Serum concentration [2, 16] | Serum concentration [2, 17] | Serum concentration [2, 18] | further results
1 | O=S(=O)(c1ccc(O)cc1)c1ccc(O)cc1 [BPS, bisphenol S] | 3.3 µM·h | 3.6 µM·h | 1.895 h⁻¹ | 1.681 L/kg | 6.3 h | 6.54 h | 0.23 h | 140 nM | 1550 nM | 130 nM | 110 nM | 12 nM | 320 nM | 50 nM | < 4 nM | 58 nM | 121 nM | < 4 nM | 940 nM | 49 nM | tvKabs (rate constant of absorption), fixed ([1]; fixed to 10, estimation of Kabs converging toward infinity): 10 h⁻¹; Oral systemic exposure ([1]; oral, dose-normalised AUC): 0.20 μmol/h/L per μmol/kg BW; Serum concentration [2, 19]: < 4 nM; Serum concentration [2, 20]: 190 nM; Serum concentration [2, 21]: 87 nM; Serum concentration [2, 22]: 150 nM; Serum concentration [2, 23]: 51 nM; Serum concentration [2, 24]: 97 nM; Serum concentration [2, 25]: 100 nM; Serum concentration [2, 26]: 120 nM; Serum concentration [2, 27]: 88 nM; Serum concentration [2, 28]: 110 nM; AUC0−inf [2, 5]: 3.38 µM·h; Cmax ([2]; oral mixture dosing, NCA, n=12): 6930 nM
2 | CCCCC(CC)COC(=O)c1ccccc1C(=O)O (centres unmarked) [MEHP, mono(2-ethylhexyl)phthalate] | 9.0 µM·h | 53 µM·h | 1.411 h⁻¹ | 0.329 L/kg | 8.2 h | 12.0 h | 4.05 h | 5150 nM | 1090 nM | 5840 nM | 6870 nM | 270 nM | 1490 nM | 2380 nM | 33 nM | 2290 nM | 4200 nM | 25 nM | 2150 nM | 3830 nM | F value for MEHP (fraction of the DEHP dose metabolized into MEHP) ([1]; MEHP IV vs DEHP oral, NLME model): 87%; tvK12 (distribution rate constant) [1, 3]: 0.285 h⁻¹; Clearance [1, 4]: 7.83 mL/min/kg; Volume(s) of the peripheral compartment ([1]; population secondary parameter, mean, for PFOA first peripheral compartment): 3.5 L/kg; MRT ([1]; population secondary parameter, mean, listed as mono-2-ethylhexyl phthalate): a few hours; half-life ([1]; terminal, population secondary parameter, mean): 31 h; F (fraction of the dose of DEHP that has been metabolized into MEHP) ([2]; NCA, MEHP after oral DEHP vs IV MEHP, as fraction): 0.99; Serum concentration [2, 19]: 91 nM; Serum concentration [2, 20]: 4160 nM; Serum concentration [2, 21]: 1610 nM; Serum concentration [2, 22]: 3160 nM; Serum concentration [2, 23]: 1930 nM; Serum concentration [2, 24]: 2800 nM; Serum concentration [2, 25]: 1910 nM; Serum concentration [2, 26]: 3290 nM; Serum concentration [2, 27]: 2930 nM; Serum concentration [2, 28]: 1570 nM; AUC0−inf [2, 5]: 65.2 µM·h; Cmax ([2]; oral mixture dosing, NCA, n=12): 6870 nM; half-life ([2]; terminal, oral mixture dosing, NCA, n=12, MEHP after oral DEHP): 10.4 h
